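Protocol summary: plate cells (96-well), add compound at 5 concentrations, incubate 48 h, interpolate endpoints linearly. GI50: concentration for 50% inhibition of growth.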 The source made the active and inactive calls. Rule as the data show it: active = GI50 up to about 1.1 µM and inactive = higher.

Among the test systems are DU-145; HOP-92; RXF 393; HT-29; MOLT-4; KM12; MDA-MB-231; OVCAR-5; SK-MEL-2; K562; A549; BT-549; PC-3; SK-MEL-28; UO-31; OVCAR-4; T47D; SK-OV-3; SF-268.
What all share (experiment): NCI-60 cell line screen, 48 h

For the compound `COc1cc(/C=C/C(=O)c2ccc(NS(=O)(=O)c3cc([N+](=O)[O-])ccc3C)cc2)cc(OC)c1OC`, the GI50 in the experiment on DU-145 is 3.13 µM (inactive); in the experiment on HOP-92, 2.98 µM (inactive); with RXF 393, 2.81 µM (inactive); in the experiment on HT-29 it was 4.38 µM (inactive); with MOLT-4, 1.85 µM (inactive); with KM12, 2.62 µM (inactive). The GI50 was 2.59 µM (inactive) in the experiment on MDA-MB-231; 4.37 µM (inactive) with OVCAR-5; 2.67 µM (inactive) in the experiment on SK-MEL-2; 2.88 µM (inactive) in the experiment with K562; 3.81 µM (inactive) with A549; 4.27 µM (inactive) in the experiment with BT-549. Further, the GI50 in the experiment on PC-3 was 5.9 µM (inactive); in the experiment on SK-MEL-28, 8.43 µM (inactive); in the experiment on UO-31 it was 5.82 µM (inactive); in the experiment on OVCAR-4, 3.19 µM (inactive); with T47D, 12.1 µM (inactive); in the experiment with SK-OV-3, 4.01 µM (inactive).

Regarding `Cc1cc2c(cc1Cl)SC(NNCCO)=NS2(=O)=O`, the GI50 in the experiment on DU-145, in the experiment with HOP-92, in the experiment with RXF 393, in the experiment on HT-29, in the experiment with MOLT-4 and in the experiment on KM12 was > 100 µM (inactive) in each case. Besides, the GI50 in the experiment with MDA-MB-231 is > 100 µM (inactive); in the experiment with SK-MEL-2 it was > 100 µM (inactive); in the experiment with K562, 56.2 µM (inactive); with SF-268, > 100 µM (inactive); in the experiment with BT-549 it was > 100 µM (inactive); in the experiment on PC-3, 86.3 µM (inactive). The GI50 with SK-MEL-28, in the experiment with UO-31, in the experiment on OVCAR-4, in the experiment with T47D and in the experiment with SK-OV-3 was > 100 µM (inactive) throughout.

Take `CCc1ccccc1NC(=O)C(=O)CC(=O)c1sc(Nc2ccccc2Cl)nc1C`: the GI50 was 55.1 µM (inactive) in the experiment on DU-145; 24.9 µM (inactive) in the experiment on RXF 393; 22.1 µM (inactive) with HT-29; 14.9 µM (inactive) in the experiment on MOLT-4; 29.6 µM (inactive) in the experiment with KM12; 27 µM (inactive) in the experiment on MDA-MB-231. For the same compound, the GI50 in the experiment on OVCAR-5 is > 100 µM (inactive); in the experiment with SK-MEL-2, 24.4 µM (inactive); in the experiment on K562, 29.4 µM (inactive); in the experiment with A549, 24 µM (inactive); in the experiment with SF-268, 66.4 µM (inactive); in the experiment with BT-549, 34.8 µM (inactive). Besides, the GI50 with PC-3 is 26.9 µM (inactive); in the experiment with SK-MEL-28, 36 µM (inactive); with UO-31, 32.7 µM (inactive); in the experiment with OVCAR-4, 36.8 µM (inactive); in the experiment on T47D, 35.7 µM (inactive); with SK-OV-3 it was 24.2 µM (inactive).

On to `OC(Cc1cccc2ccccc12)CN1CCC(c2ccccc2)CC1` (centres undefined), for which the GI50 in the experiment on DU-145 is 14.9 µM (inactive); in the experiment with HOP-92, 12.4 µM (inactive); in the experiment with RXF 393 it was 10.2 µM (inactive); in the experiment on HT-29 it was 11.2 µM (inactive); with KM12 it was 14.8 µM (inactive); in the experiment with MDA-MB-231 it was 14.2 µM (inactive). The GI50 in the experiment on OVCAR-5 is 13.7 µM (inactive); in the experiment with K562, 12.5 µM (inactive); in the experiment with A549, 15.9 µM (inactive); in the experiment with SF-268, 14.4 µM (inactive); in the experiment on BT-549, 16.8 µM (inactive); with PC-3, 14.5 µM (inactive). Moreover, the GI50 was 13.4 µM (inactive) with SK-MEL-28, 0.0241 µM (active) with UO-31, 14.3 µM (inactive) in the experiment with T47D and 17.5 µM (inactive) in the experiment on SK-OV-3.

The record behind these values is ChEMBL document CHEMBL1201862, “PubChem BioAssay data set” (2004).
